Laboratory results: paper PMC10892984, “Novel Antineoplastic Inducers of Mitochondrial Apoptosis in Human Cancer Cells” (Molecules, 2024)

How the values were obtained:
[1] = test system: MDA-MB-435
[2] = test system: OVCAR-4
[3] = test system: PC-3
[4] = test system: HT29
[5] = test system: 60 human cancer cell lines
Source text: The defined tumor inhibition criterion (GI50, TGI, or LC50) is recalculated in log10 expression, and the colored bars, which indicate then the sensitivity of the individual tumor cell line to the agent, are given in log10 units. […] The most important feature is at the bottom of the page: the MID (Mean of Inhibition Data) indicates the mean concentration for all tested cell lines required for the drug to reach the defined tumor inhibition criterion (GI50, TGI, or LC50). It is given in Log10GI50, Log10TGI, and Log10LC50. From those values, the corresponding MID is calculated. […] The MID can be transformed from logarithmic into linear concentrations by the formula: c = 10^MID.
The human tumor cell lines of the cancer screening panel are grown in RPMI-1640 medium containing 5% fetal bovine serum (FBS) and 2 mM L-glutamine. For a typical screening experiment, cells are inoculated into 96-well microtiter plates in 100 μL at plating densities ranging from 5000 to 40,000 cells/well, depending on the doubling time of individual cell lines. After cell inoculation, the microtiter plates are incubated at 37 °C, 5% CO2, 95% air, and 100% relative humidity for 24 h prior to the addition of experimental drugs. After 24 h, two plates of each cell line are fixed in situ with trichloroacetic acid (TCA) to represent a measurement of the cell population for each cell line at the time of drug addition (Tz). Experimental drugs are solubilized in dimethyl sulfoxide (DMSO) at 400-fold the desired final maximum test concentration and stored frozen prior to use. At the time of drug addition, an aliquot of frozen concentrate is thawed and diluted to twice the desired final maximum test concentration with a complete medium containing 50 μg/mL gentamicin. Additional four, 10-fold or ½ log serial dilutions are made to provide a total of five drug concentrations plus control. Aliquots of 100 μL of these different drug dilutions are added to the appropriate microtiter wells already containing 100 μL of the medium, resulting in the required final drug concentrations.
Following drug addition, the plates are incubated for an additional 48 h at 37 °C, 5% CO2, 95% air, and 100% relative humidity. For adherent cells, the assay is terminated by the addition of cold TCA. Cells are fixed in situ by the gentle addition of 50 μL of cold 50% (m/v) TCA (final concentration, 10% TCA) and incubated for 60 min at 4 °C. The supernatant is discarded, and the plates are washed five times with tap water and air dried. Sulforhodamine B (SRB) solution [100 μL at 0.4% (m/v) in 1% acetic acid] is added to each well, and plates are incubated for 10 min at room temperature. After staining, unbound dye is removed by washing five times with 1% acetic acid, and the plates are air dried. Bound stain is subsequently solubilized with 10 mM trizma® base [2-amino-2-(hydroxymethyl)-1,3-propandiol, tris base, trometamol], and the absorbance is read on an automated plate reader at a wavelength of λ = 515 nm. For suspension cells, the methodology is the same, except that the assay is terminated by fixing settled cells at the bottom of the wells by gently adding 50 μL of 80% TCA (final concentration, 16% TCA). Using the seven absorbance measurements [time zero, (Tz), control growth, (C), and test growth in the presence of the drug at the five concentration levels (Ti)], the percentage growth is calculated at each of the drug concentration levels. Percentage growth inhibition is calculated as:[(Ti − Tz)/(C − Tz)] × 100 for concentrations for which Ti ≥ Tz [(Ti − Tz)/Tz] × 100 for concentrations for which Ti < Tz
Three dose-response parameters are calculated for each experimental agent.

[6] = test system: SNB-19
[7] = test system: MALME-3M; settings: 48 h
[8] = test system: NCI/ADR-RES
[9] = test system: DU-145
[10] = test system: SNB-75
[11] = test system: CCRF-CEM
[12] = test system: SF-539
[13] = test system: NCI-H226
[14] = test system: MOLT-4
[15] = test system: NCI-H460
[16] = test system: A498
[17] = test system: MDA-MB-231
[18] = test system: TK-10
[19] = test system: UACC-62
[20] = test system: SW-620
[21] = test system: MCF7
[22] = test system: SF-268
[23] = test system: HCT-116
[24] = test system: SF-295
[25] = test system: DU-145 cells; assay: Cytochrome c assay (mitochondrial and cytosolic), ELISA; assay type: cell-based, human
Experimental: (§1) Cell numbers of 2 × 10^6 PC-3 and DU-145 cells were seeded into a […]. […] The protein content for each fraction was calculated to determine the mass content of cytochrome c in each fraction (pg cytochrome c/mg total protein). The mass content of cytochrome c (pg cytochrome c/mg total protein) was normalized towards the corresponding blank DMSO control and is given in percent (%) of blank DMSO control.

[26] = test system: PC-3 cells; assay: as above; assay type: cell-based, human; settings: 25 µM
Experimental: as §1

[27] = Homo sapiens, 48 h, read-out: LC50

`c1cc(CNC23CC4CC(CC(C4)C2)C3)cc(C[N+](Cc2cccc(CNC34CC5CC(CC(C5)C3)C4)c2)(Cc2cccc(CNC34CC5CC(CC(C5)C3)C4)c2)Cc2cccc(CNC34CC5CC(CC(C5)C3)C4)c2)c1` (stereo not drawn) [Compound 1, tetrakis{3-[(tricyclo[3.3.1.1^3,7]decan-1-ammonio)methyl]benzyl}ammonium pentachloride] showed a GI50 ([1]; Homo sapiens, MDA-MB-435, 48 h) of 0.825 µM, a CC50 ([1]; Homo sapiens, MDA-MB-435, 48 h, read-out: LC50) of 6.5 µM and a TGI ([1]; MDA-MB-435, melanoma, mutant p53, 48 h) of 2.11 µM. It also gave a GI50 ([2]; Homo sapiens, OVCAR-4, 48 h) of 1.16 µM, a CC50 ([2]; Homo sapiens, OVCAR-4, 48 h, read-out: LC50) of 18.4 µM and a TGI ([2]; OVCAR-4, ovarian cancer, mutant p53, 48 h) of 5.45 µM. The GI50 ([3]; Homo sapiens, PC-3, 48 h) was 1.4 µM, the CC50 ([3]; Homo sapiens, PC-3, 48 h, read-out: LC50) was 21.4 µM and the TGI ([3]; PC-3, prostate cancer, mutant p53 (null p53 protein), 48 h) was 5.17 µM. The TGI ([4]; HT29, colon cancer, mutant p53, 48 h) was 2.82 µM, the GI50 ([4]; Homo sapiens, HT-29, 48 h) was 0.857 µM and the CC50 ([4]; Homo sapiens, HT-29, 48 h, read-out: LC50) was 14.6 µM. For the same compound, the GI50 ([5]; Homo sapiens, read-out: Mean of Inhibition Data (MID) GI50, 10^MID) was 1.29 µM, the CC50 ([5]; Homo sapiens, read-out: Mean of Inhibition Data (MID) LC50, 10^MID) was 16.6 µM and the “induction of cancer cell death (classification)” value ([5]; NCI 60 panel overall) was “tumoricidal”. The “Mean of Inhibition Data (MID) TGI, 10^MID” value ([5]; mean over all tested cell lines of the NCI 60 panel) was 4.677 µM, the GI50 ([6]; Homo sapiens, SNB-19, 48 h) was 1.92 µM and the CC50 ([6]; Homo sapiens, SNB-19, 48 h, read-out: LC50) was 19.9 µM. The TGI ([6]; SNB-19, CNS cancer (brain tumor), mutant p53, 48 h) was 7.27 µM, the GI50 ([7]; Homo sapiens, Malme-3M) was 0.839 µM and the CC50 ([7]; Homo sapiens, Malme-3M, read-out: LC50) was 4.12 µM. The TGI ([7]; MALME-3M, melanoma, wild-type p53) was 1.86 µM, the GI50 ([8]; Homo sapiens, 48 h) was 1.44 µM and the CC50 [8, 27] was > 50 µM. It also gave a TGI ([8]; ovarian cancer, mutant p53, 48 h) of 4.55 µM, a TGI ([9]; DU-145, prostate cancer, mutant p53, 48 h) of 4.61 µM and a GI50 ([9]; Homo sapiens, DU-145, 48 h) of 1.47 µM. It also gave a CC50 ([9]; Homo sapiens, DU-145, 48 h, read-out: LC50) of 15.2 µM, a GI50 ([10]; Homo sapiens, SNB-75, 48 h) of 2.34 µM and a CC50 ([10]; Homo sapiens, SNB-75, 48 h, read-out: LC50) of 27.9 µM. The TGI ([10]; SNB-75, CNS cancer (brain tumor), mutant p53, 48 h) was 9.73 µM, the GI50 ([11]; Homo sapiens, 48 h) was 1.46 µM and the CC50 [11, 27] was > 50 µM. For the same compound, the TGI ([11]; leukemia, mutant p53, 48 h) was > 50 µM, the GI50 ([12]; Homo sapiens, SF-539, 48 h) was 1.01 µM and the CC50 ([12]; Homo sapiens, SF-539, 48 h, read-out: LC50) was 7.59 µM. It also gave a TGI ([12]; SF-539, CNS cancer (brain tumor), mutant p53, 48 h) of 2.48 µM, a GI50 ([13]; Homo sapiens, NCI-H226, 48 h) of 2.76 µM and a CC50 ([13]; Homo sapiens, NCI-H226, 48 h, read-out: LC50) of 31.2 µM. For the same compound, the TGI ([13]; NCI-H226, non-small-cell lung cancer, p53 Lit. inconclusive, 48 h) was 10.8 µM, the GI50 ([14]; Homo sapiens, MOLT-4, 48 h) was 1.32 µM and the CC50 ([14]; Homo sapiens, MOLT-4, 48 h, read-out: LC50) was > 50 µM. The TGI ([14]; MOLT-4, leukemia, mutant p53, 48 h) was 4.09 µM, the GI50 ([15]; Homo sapiens, NCI-H460, 48 h) was 1.19 µM and the CC50 ([15]; Homo sapiens, NCI-H460, 48 h, read-out: LC50) was 17.9 µM. It also gave a TGI ([15]; NCI-H460, non-small-cell lung cancer, wild-type p53, 48 h) of 2.71 µM, a TGI ([16]; A498, renal cancer, wild-type p53, 48 h) of 7.05 µM and a GI50 ([16]; Homo sapiens, A498, 48 h) of 1.19 µM. The CC50 ([16]; Homo sapiens, A498, 48 h, read-out: LC50) was 21.2 µM, the GI50 ([17]; Homo sapiens, MDA-MB-231, 48 h) was 2.09 µM and the CC50 ([17]; Homo sapiens, MDA-MB-231, 48 h, read-out: LC50) was 22.7 µM. The TGI ([17]; MDA-MB-231, breast cancer, mutant p53, 48 h) was 7.41 µM, the GI50 ([18]; Homo sapiens, TK-10, 48 h) was 1.85 µM and the CC50 ([18]; Homo sapiens, TK-10, 48 h, read-out: LC50) was 21.5 µM. For the same compound, the TGI ([18]; TK-10, renal cancer, mutant p53, 48 h) was 7.17 µM, the GI50 ([19]; Homo sapiens, UACC-62, 48 h) was 1.16 µM and the CC50 ([19]; Homo sapiens, UACC-62, 48 h, read-out: LC50) was 14.2 µM. It also gave a TGI ([19]; UACC-62, melanoma, wild-type p53, 48 h) of 3.68 µM, a GI50 ([20]; Homo sapiens, SW-620, 48 h) of 1.25 µM and a CC50 ([20]; Homo sapiens, SW-620, 48 h, read-out: LC50) of 17.2 µM. The TGI ([20]; SW-620, colon cancer, mutant p53, 48 h) was 3.95 µM, the GI50 ([21]; Homo sapiens, MCF7, 48 h) was 1.07 µM and the CC50 ([21]; Homo sapiens, MCF7, 48 h, read-out: LC50) was 45.8 µM. It also gave a TGI ([21]; MCF7, breast cancer, wild-type p53, 48 h) of 6.19 µM, a GI50 ([22]; Homo sapiens, SF-268, 48 h) of 1.53 µM and a CC50 ([22]; Homo sapiens, SF-268, 48 h, read-out: LC50) of 30.8 µM. It also gave a TGI ([22]; SF-268, CNS cancer (brain tumor), mutant p53, 48 h) of 5.41 µM, a TGI ([23]; HCT-116, colon cancer, wild-type p53, 48 h) of 2.01 µM and a GI50 ([23]; Homo sapiens, HCT-116, 48 h) of 0.728 µM. It also gave a CC50 ([23]; Homo sapiens, HCT-116, 48 h, read-out: LC50) of 6.47 µM, a GI50 ([24]; Homo sapiens, SF-295, 48 h) of 3.05 µM and a CC50 ([24]; Homo sapiens, SF-295, 48 h, read-out: LC50) of 28.2 µM. For the same compound, the TGI ([24]; SF-295, CNS cancer (brain tumor), mutant p53, 48 h) was 10.4 µM, the “toxicity for the cell line” value ([25]; 25 µM, 50 µM and 75 µM, 48 h post-treatment) was “highly toxic” and the “cell death with depletion of cytosolic cytochrome c” value ([25]; 25.0 µM, 48 h) was “induced complete cell death”. The “concentration at which cytochrome c translocation from mitochondria into the cytosol was readily induced” value ([25]; 48 h, tested 500 nM, 1 µM, 5 µM, 25 µM) was 5.0 µM, the “toxicity for the cell line” value ([26]; 50 µM and 75 µM, 48 h post-treatment) was “highly toxic” and the “concentration at which cytochrome c translocation from mitochondria into the cytosol was readily induced” value ([26]; 48 h, tested 500 nM, 1 µM, 5 µM) was 25.0 µM.
